These results are taken from US20080004177A1, “Novel Copper-Containing Formulations” (priority 2003, published 2008).

This test concerns Septoria tritici. The experiment in a line: Growth assay with Septoria tritici as indicator fungus (photometric). It is filed as cell-based. The following applies: active ingredient concentration in the spray mixture 1 ppm. Here is the method:
A growth assay was carried out with Septoria tritici as indicator fungus. The fungal growth was measured photometrically by the increase in absorption or light scattering as a function of mycelium density. The data obtained were converted into percent growth inhibition, the absorption of the untreated controls being defined as 0% inhibition and that of a killed spore suspension as reference as 100% inhibition.
The expected efficacies of combinations of active ingredients were determined using Colby's formula (Colby, S. R. (Calculating synergistic and antagonistic responses of herbicide combinations”, Weeds, 15, pp. 20-22, 1967)) and compared with the observed efficacies.
E=x+y−x·y/100 • E expected efficacy, expressed in % of the untreated control, when using the mixture of the active ingredients A and B at the concentrations a and b • x efficacy, expressed in % of the untreated control, when using the active ingredient A at the concentration a • y efficacy, expressed in % of the untreated control, when using the active ingredient B at the concentration b

Molecules are shown by their SMILES.

On to `COC(=O)N(OC)c1ccccc1COc1ccn(-c2ccc(Cl)cc2)n1` [II, Pyraclostrobin], for which the Growth inhibition came to 57%.
